Data as given in US10308686B2, “Gamma-AApeptides with potent and broad-spectrum antimicrobial activity” (priority 2012, dated 2019).
≈ marks a conversion by molar mass, not a printed value. Like-named read-outs stand apart in the source and are kept apart here.

Experiments:
[1] = tested on: human red blood cells (hRBC's); assay: Hemolysis assay; assay type: cell-based; details: for Hemolysis HC10 / Hemolysis HC50: red cells of human
Experimental: Freshly drawn human red blood cells (hRBC's) with additive K2 EDTA (spray-dried) were washed with PBS buffer several times and centrifuged at 1000 g for 10 min until a clear supernatant was observed. The hRBC's were resuspended in 1×PBS to get a 5% v/v suspension. Two-fold serial dilutions of γ-AApeptides dissolved in 1×PBS from 250 μg/ml through 1.6 μg/ml were added to a sterile 96-well plate to make up a total volume of 50 μL in each well. Then 50 μL of 5% v/v hRBC solution was added to make up a total volume of 100 μL in each well. The 0% hemolysis point and 100% hemolysis point were determined in 1×PBS and 0.2% Triton-X-100, respectively (Patch et al., 2003). The plate was then incubated at 37° C. for 1 h and centrifuged at 3500 rpm for 10 min. The supernatant (30 μL) was diluted with 100 μL of 1×PBS and absorption was detected by measuring the optical density at 360 nm by Biotek Synergy HT microtiter plate reader. % hemolysis was determined by the following equation: % hemolysis=(Abssample−AbsPBS)/(AbsTriton−AbsPBS)×100 H50 is the concentration of γ-AApeptide amphiphiles at which 50% hemolysis was observed. The highest concentration tested in the hemolytic assay was 500 μg/ml. 7. Fluorescence Microscopy
The sequences shown in FIG. 12 were also evaluated via hemolytic assays. Freshly drawn human red blood cells (hRBC's) with additive K2 EDTA (spray-dried) were washed with PBS buffer several times and centrifuged at 1000 g for 10 min until a clear supernatant was observed. The hRBC's were resuspended in 1×PBS to get a 5% v/v suspension. Two-fold serial dilutions of lipidated γ-AApeptides dissolved in 1×PBS from 1 mg/ml through 6.3 μg/ml were added to sterile 96-well plates to make up a total volume of 50 μL in each well. Then 50 μL of 5% v/v hRBC solution was added to make up a total volume of 100 μL in each well. The 0% hemolysis point and 100% hemolysis point were determined in 1×PBS and 0.2% Triton-X-100, respectively (Patch et al., 2003). The plate was then incubated at 37° C. for 1 h and centrifuged at 3500 rpm for 10 min. The supernatant (30 μL) was diluted with 100 μL of 1×PBS and absorption was detected by measuring the optical density at 360 nm with a Biotek Synergy HT microtiter plate reader. % hemolysis was determined by the following equation: % hemolysis=(Abs sample−Abs PBS)/(Abs Triton−Abs PBS)×100

[2] = tested on: K. pneumoniae (ATCC 13383)
[3] = tested on: multi-drug resistant P. aeruginosa ATCC 27853; details: ATCC 27853
[4] = tested on: multi-drug resistant S. epidermidis (RP62A); details: for MIC, Gram positive S. epidermidis: Table 7
[5] = tested on: vancomycin-resistant E. faecalis (ATCC 700802); details: for MIC, Gram positive E. faecalis: Table 7
[6] = tested on: methicillin-resistant S. aureus (ATCC 33592); details: for MIC, Gram positive S. aureus: Table 7
[7] = tested on: methicillin-resistant S. aureus (MRSA, USA100 lineage)
[8] = tested on: Gram-positive and Gram-negative bacteria and the fungus C. albicans; assay: Antimicrobial assays, whole panel (statements in words); assay type: cell-based

SMILES	Hemolysis (H50) [1] [µg/mL]	Hemolysis HC10 [1] [µg/mL]	Hemolysis HC50 [1] [µg/mL]	MIC, E. coli (E. coli (JM109)) [µg/mL]	MIC, Gram negative E. coli (E. coli (JM109)) [µg/mL]	MIC, Gram negative K. pneumoniae [2] [µg/mL]	MIC, K. pneumoniae (causing pneumonia) [2] [µg/mL]	MIC, Gram negative P. aeruginosa [3] [µg/mL]	MIC, P. aeruginosa [3] [µg/mL]	MIC, B. subtilis (B. subtilis (BR151)) [µg/mL]	MIC, Gram positive B. subtilis (B. subtilis (BR151)) [µg/mL]	MIC, S. epidermidis (multi-drug resistant) ([4]; Table 1) [µg/mL]	MIC, S. epidermidis (multi-drug resistant) ([4]; Table 3) [µg/mL]	MIC, Gram positive S. epidermidis [4] [µg/mL]	MIC, E. faecalis (vancomycin-resistant) ([5]; Table 1) [µg/mL]	MIC, E. faecalis (vancomycin-resistant) ([5]; Table 3) [µg/mL]	MIC, Gram positive E. faecalis [5] [µg/mL]	MIC, Gram positive S. aureus [6] [µg/mL]	MIC, Fungi, C. albicans (C. albicans (ATCC 10231); ATCC 10231) [µg/mL]	MIC, Fungi C. albicans (C. albicans (ATCC 10231); ATCC 10231, 48 h) [µg/mL]	further results
CC(C)C[C@@H](CN(CC(=O)N[C@@H](CCCCN)CN(CC(N)=O)C(=O)CCc1ccccc1)C(=O)CCc1ccccc1)NC(=O)CN(C[C@H](CCCCN)NC(=O)CN(C[C@H](CCCCN)NC(=O)CN(C[C@H](CC(C)C)NC(=O)CN(C[C@H](CCCCN)NC(=O)CN(C[C@@H](N)CCCCN)C(=O)CCc1ccccc1)C(=O)CCc1ccccc1)C(=O)CCc1ccccc1)C(=O)CCc1ccccc1)C(=O)CCc1ccccc1 [γ5]	300	75	300	2.5 to 5	3 (≈ 1.42 µM)	5 (≈ 2.37 µM)	5 (≈ 2.37 µM)	>50	25 to 50	2 (≈ 0.947 µM)	2 (≈ 0.947 µM)	3.1 to 6.25	3.1 to 6.3	5 (≈ 2.37 µM)	3.1 to 6.25	3.1 to 6.3	5 (≈ 2.37 µM)	5 (≈ 2.37 µM)	8 (≈ 3.79 µM)	5 to 10	Hemolysis H10 [1]: 75 µg/mL; Hemolysis H50 [1]: 300 µg/mL; MIC, S. aureus (methicillin-resistant) ([6]; Table 1): 5 µg/mL (≈ 2.37 µM); MIC, MRSA USA100 (leading hospital-associated strain) ([7]; Table 1): 5 µg/mL (≈ 2.37 µM); MIC, MRSA USA100 ([7]; Table 3): 5 µg/mL (≈ 2.37 µM); MIC, B. anthracis (lethal bioweapon) (B. anthracis; Table 1): 5 µg/mL (≈ 2.37 µM); MIC, Fungi C. albicans (C. albicans (ATCC 10231); ATCC 10231): 5 to 10 µg/mL
CCCCCCCCCCCCCCCC(=O)N[C@@H](C)CN(CC(=O)N[C@@H](CCCCN)CN(CC(=O)N[C@@H](Cc1ccccc1)CN(CC(=O)N[C@@H](Cc1ccccc1)CN(CC(N)=O)C(=O)CCc1c[nH]cn1)C(=O)CCc1c[nH]cn1)C(=O)CCCN)C(C)=O [γAA3]	150			1.6 to 3.1			12.5 to 25		3 to 6	1.6 to 3.1			1.6 to 3.1			1.6 to 3.1					MIC, S. aureus (methicillin-resistant) ([6]; Table 3): 1.6 to 3.1 µg/mL; MIC, Fungi C. albicans (C. albicans (ATCC 10231); ATCC 10231): 1.6 to 3.1 µg/mL
CCCCCCCCCCCC(=O)N[C@@H](CCCCN)CN(CC(N)=O)C(=O)CCCN [Sequence 1]		400	> 500		>50	>50		>50			>50			>50			>50	>50	>50		antimicrobial activity against the tested panel, in words [8]: not active toward any microorganism
NCCCC[C@H](N)CN(CC(=O)N[C@@H](CCCCN)CN(CC(=O)N[C@@H](CCCCN)CN(CC(=O)N[C@@H](CCCCN)CN(CC(=O)N[C@@H](CCCCN)CN(CC(=O)N[C@@H](CCCCN)CN(CC(=O)N[C@@H](CCCCN)CN(CC(N)=O)C(=O)CCc1ccccc1)C(=O)CCc1ccccc1)C(=O)CCc1ccccc1)C(=O)CCc1ccccc1)C(=O)CCc1ccccc1)C(=O)CCc1ccccc1)C(=O)CCc1ccccc1 [γ3]	>500			2.5 to 5			>100			2.5 (≈ 1.17 µM)		6.25 to 12.5			12.5 to 25					12.5 to 25	MIC, S. aureus (methicillin-resistant) ([6]; Table 1): 12.5 to 25 µg/mL; MIC, B. anthracis (lethal bioweapon) (B. anthracis; Table 1): 25 to 50 µg/mL
NCCCC[C@@H](C(N)=O)N(CCNC(=O)[C@H](CCCCN)N(CCNC(=O)[C@H](CCCCN)N(CCNC(=O)[C@H](CCCCN)N(CCNC(=O)[C@H](CCCCN)N(CCNC(=O)[C@H](CCCCN)N(CCNC(=O)[C@H](CCCCN)N(CCN)C(=O)CCc1ccccc1)C(=O)CCc1ccccc1)C(=O)CCc1ccccc1)C(=O)CCc1ccccc1)C(=O)CCc1ccccc1)C(=O)CCc1ccccc1)C(=O)CCc1ccccc1 [α1, reference compound]				4.5 (≈ 2.1 µM)			>100			2 (≈ 0.934 µM)										20 to 30	Hemolysis (H50) ([1]; Table 1, concentration at which 50% hemolysis was observed): >500 µg/mL; MIC, S. epidermidis (multi-drug resistant) ([4]; multi-drug resistant (RP62A)): 10 µg/mL (≈ 4.67 µM); MIC, E. faecalis (vancomycin-resistant) ([5]; ATCC 700802): 75 µg/mL (≈ 35 µM); MIC, S. aureus (methicillin-resistant) ([6]; ATCC 33592): 75 µg/mL (≈ 35 µM); MIC, MRSA USA100 (leading hospital-associated strain) ([7]; USA100): >100 µg/mL; MIC, B. anthracis (lethal bioweapon) (B. anthracis): >100 µg/mL
CCCCCCCCCCCCCCCC(=O)N[C@@H](CCCCN)CN(CC(N)=O)C(=O)CCCN [Sequence 2]		25	40		2.5 (≈ 4.88 µM)	35 (≈ 68.4 µM)		10 (≈ 19.5 µM)			1.5 (≈ 2.93 µM)			2 (≈ 3.91 µM)			2.5 (≈ 4.88 µM)	2.5 (≈ 4.88 µM)	2 (≈ 3.91 µM)		
